Bridge positions count the residues as written; N and C are the ends. Square brackets hold non-standard residues; d marks the D form. Peptide text beside a SMILES is read from it. * marks the point of attachment. ξ: configuration not given here. Bip = N[C@@H](Cc1ccc(-c2ccccc2)cc1)C(=O)O; Phe(3-Me) = Cc1cccc(C[C@H](N)C(=O)O)c1; Cha = N[C@@H](CC1CCCCC1)C(=O)O; dOrn = NCCC[C@@H](N)C(=O)O; dDab = NCC[C@@H](N)C(=O)O; Carboxymethyl = O=C(O)C*; Orn = NCCC[C@H](N)C(=O)O; dDap = NC[C@@H](N)C(=O)O; Aun = NCCCCCCCCCCC(=O)O; Dap = NC[C@H](N)C(=O)O; AEEA = NCCOCCOCC(=O)O; ξC = NC(CS)C(=O)O

In this assay the target is T1, PD-1/PD-L1 interaction (PE-labeled human PD-L1-Ig binding to Jurkat cell line over-expressing human PD-1) (Homo sapiens, UniProt Q15116).
T1 construct: expressed in transfected cells; host or cells: Jurkat
T1 sequence (Q15116 25-288): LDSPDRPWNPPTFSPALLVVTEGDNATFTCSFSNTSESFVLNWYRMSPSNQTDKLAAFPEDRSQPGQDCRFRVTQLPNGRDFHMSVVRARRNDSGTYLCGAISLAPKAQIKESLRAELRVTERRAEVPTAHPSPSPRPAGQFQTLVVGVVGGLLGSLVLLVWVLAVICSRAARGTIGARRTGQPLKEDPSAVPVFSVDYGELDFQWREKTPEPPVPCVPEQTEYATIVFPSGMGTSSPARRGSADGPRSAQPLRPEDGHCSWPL
Put plainly: Jurkat-PD-1 Cell Binding High-Content Screening Assay (CBA). It is filed as cell-based. Particulars: Jurkat cell line over-expressing human PD-1; PE-labeled PD-L1-Ig 20 nM final; read-out: Jurkat hPD1-PDL1 IC50. The procedure, abridged: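 Read-out is high-content imaging of cell-bound phycoerythrin-tagged PD-L1-Ig on fixed, Hoechst-counterstained Jurkat cells that over-express human PD-1. Compound exposure lasts 2 h at 37° C before the labeled ligand (20 nM final) is added for a further hour.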
On to `CC(C)C[C@H]1NC(=O)[C@H](CCCN)NC(=O)[C@H](C(C)C)NC(=O)[C@H](Cc2ccc(-c3ccccc3)cc2)NC(=O)[C@H](C(C)C)NC(=O)[C@H](Cc2c[nH]c3ccccc23)NC(=O)[C@H](CC(=O)O)NC(=O)[C@H](Cc2ccc(OCC(=O)O)cc2)NC(=O)[C@H](CN)NC(=O)CSC[C@@H](C(=O)N[C@@H](C)C(=O)N[C@@H](CO)C(=O)NCCCCCCCCCCC(=O)O)NC(=O)[C@H]([C@@H](C)O)NC(=O)[C@H](C(C)C)NC(=O)[C@H](CC2CCCCC2)NC(=O)[C@H](Cc2cnc[nH]2)NC1=O` [Compound 1114] ({CH2CO}-[Dap]Y(Carboxymethyl)DWV[Bip]V[Orn][dL]H[Cha]VTCAS[Aun]-OH; thioether N-14), for which the IC50 stood at 61 nM. Next, `Cc1cccc(C[C@@H]2NC(=O)[C@H](CC(=O)O)NC(=O)[C@H](Cc3ccc(OCC(=O)O)cc3)NC(=O)[C@H](CN)NC(=O)CSC[C@@H](C(=O)N[C@@H](C)C(=O)N[C@@H](CO)C(=O)NCCCCCCCCCCC(=O)O)NC(=O)[C@H]([C@@H](C)O)NC(=O)[C@H](C(C)C)NC(=O)[C@H](CC3CCCCC3)NC(=O)[C@H](Cc3cnc[nH]3)NC(=O)[C@@H](CC(C)C)NC(=O)[C@H](CCCN)NC(=O)[C@H](C(C)C)NC(=O)[C@H](Cc3ccc(-c4ccccc4)cc3)NC(=O)[C@H](C(C)C)NC2=O)c1` [Compound 1115] ({CH2CO}-[Dap]Y(Carboxymethyl)D[Phe(3-Me)]V[Bip]V[Orn][dL]H[Cha]VTCAS[Aun]-OH; thioether N-14): 26 nM.

As for `CC(C)C[C@H]1NC(=O)[C@H](CCCN)NC(=O)[C@H](C(C)C)NC(=O)[C@H](Cc2ccc(-c3ccccc3)cc2)NC(=O)[C@H](C(C)C)NC(=O)[C@H](Cc2c[nH]c3ccccc23)NC(=O)[C@H](CC(=O)O)NC(=O)[C@H](Cc2ccc(OCC(=O)O)cc2)NC(=O)[C@H](CN)NC(=O)CSCC(C(=O)N[C@H](C)C(=O)NCCCCCCCCCCC(=O)O)NC(=O)[C@H]([C@@H](C)O)NC(=O)[C@H](C(C)C)NC(=O)[C@H](CC2CCCCC2)NC(=O)[C@H](Cc2cnc[nH]2)NC1=O` (some centres unmarked) [Compound 1116], the IC50 came out at 37.6 nM. Next, `CC(C)C[C@H]1NC(=O)[C@H](CCCN)NC(=O)[C@H](C(C)C)NC(=O)[C@H](Cc2ccc(-c3ccccc3)cc2)NC(=O)[C@H](C(C)C)NC(=O)[C@H](Cc2c[nH]c3ccccc23)NC(=O)[C@H](CC(=O)O)NC(=O)[C@H](Cc2ccc(OCC(=O)O)cc2)NC(=O)[C@H](CN)NC(=O)CSCC(C(=O)N[C@H](CN)C(=O)NCCCCCCCCCCC(=O)O)NC(=O)[C@H]([C@@H](C)O)NC(=O)[C@H](C(C)C)NC(=O)[C@H](CC2CCCCC2)NC(=O)[C@H](Cc2cnc[nH]2)NC1=O` (stereo partly drawn) [Compound 1117] ({CH2CO}-[Dap]Y(Carboxymethyl)DWV[Bip]V[Orn][dL]H[Cha]VT[ξC][dDap][Aun]-OH; thioether N-14): 48.4 nM; `CC(C)C[C@H]1NC(=O)[C@H](CCCN)NC(=O)[C@H](C(C)C)NC(=O)[C@H](Cc2ccc(-c3ccccc3)cc2)NC(=O)[C@H](C(C)C)NC(=O)[C@H](Cc2c[nH]c3ccccc23)NC(=O)[C@H](CC(=O)O)NC(=O)[C@H](Cc2ccc(OCC(=O)O)cc2)NC(=O)[C@H](CN)NC(=O)CSCC(C(=O)N[C@H](CCN)C(=O)NCCCCCCCCCCC(=O)O)NC(=O)[C@H]([C@@H](C)O)NC(=O)[C@H](C(C)C)NC(=O)[C@H](CC2CCCCC2)NC(=O)[C@H](Cc2cnc[nH]2)NC1=O` (stereo partly drawn) [Compound 1118] ({CH2CO}-[Dap]Y(Carboxymethyl)DWV[Bip]V[Orn][dL]H[Cha]VT[ξC][dDab][Aun]-OH; thioether N-14): 30.7 nM; `CC(C)C[C@H]1NC(=O)[C@H](CCCN)NC(=O)[C@H](C(C)C)NC(=O)[C@H](Cc2ccc(-c3ccccc3)cc2)NC(=O)[C@H](C(C)C)NC(=O)[C@H](Cc2c[nH]c3ccccc23)NC(=O)[C@H](CC(=O)O)NC(=O)[C@H](Cc2ccc(OCC(=O)O)cc2)NC(=O)[C@H](CN)NC(=O)CSCC(C(=O)N[C@H](CCCN)C(=O)NCCCCCCCCCCC(=O)O)NC(=O)[C@H]([C@@H](C)O)NC(=O)[C@H](C(C)C)NC(=O)[C@H](CC2CCCCC2)NC(=O)[C@H](Cc2cnc[nH]2)NC1=O` (stereo partly drawn) [Compound 1119] ({CH2CO}-[Dap]Y(Carboxymethyl)DWV[Bip]V[Orn][dL]H[Cha]VT[ξC][dOrn][Aun]-OH; thioether N-14): 57.5 nM. In the case of `CC(C)C[C@H]1NC(=O)[C@H](CCCN)NC(=O)[C@H](C(C)C)NC(=O)[C@H](Cc2ccc(-c3ccccc3)cc2)NC(=O)[C@H](C(C)C)NC(=O)[C@H](Cc2c[nH]c3ccccc23)NC(=O)[C@H](CC(=O)O)NC(=O)[C@H](Cc2ccc(OCC(=O)O)cc2)NC(=O)[C@H](CN)NC(=O)CSCC(C(=O)N[C@H](CCCCN)C(=O)NCCCCCCCCCCC(=O)O)NC(=O)[C@H]([C@@H](C)O)NC(=O)[C@H](C(C)C)NC(=O)[C@H](CC2CCCCC2)NC(=O)[C@H](Cc2cnc[nH]2)NC1=O` (stereo partly drawn) [Compound 1120] ({CH2CO}-[Dap]Y(Carboxymethyl)DWV[Bip]V[Orn][dL]H[Cha]VT[ξC][dK][Aun]-OH; thioether N-14) it was 40.9 nM; in that of `CC(C)C[C@H]1NC(=O)[C@H](CCCN)NC(=O)[C@H](C(C)C)NC(=O)[C@H](Cc2ccc(-c3ccccc3)cc2)NC(=O)[C@H](C(C)C)NC(=O)[C@H](Cc2c[nH]c3ccccc23)NC(=O)[C@H](CC(=O)O)NC(=O)[C@H](Cc2ccc(OCC(=O)O)cc2)NC(=O)[C@H](CN)NC(=O)CSCC(C(=O)N[C@H](CC(=O)O)C(=O)NCCCCCCCCCCC(=O)O)NC(=O)[C@H]([C@@H](C)O)NC(=O)[C@H](C(C)C)NC(=O)[C@H](CC2CCCCC2)NC(=O)[C@H](Cc2cnc[nH]2)NC1=O` (stereo partly drawn) [Compound 1121] ({CH2CO}-[Dap]Y(Carboxymethyl)DWV[Bip]V[Orn][dL]H[Cha]VT[ξC][dD][Aun]-OH; thioether N-14), 27.4 nM. In the case of `CC(C)C[C@H]1NC(=O)[C@H](CCCN)NC(=O)[C@H](C(C)C)NC(=O)[C@H](Cc2ccc(-c3ccccc3)cc2)NC(=O)[C@H](C(C)C)NC(=O)[C@H](Cc2c[nH]c3ccccc23)NC(=O)[C@H](CC(=O)O)NC(=O)[C@H](Cc2ccc(OCC(=O)O)cc2)NC(=O)[C@H](CN)NC(=O)CSCC(C(=O)N[C@H](CCC(=O)O)C(=O)NCCCCCCCCCCC(=O)O)NC(=O)[C@H]([C@@H](C)O)NC(=O)[C@H](C(C)C)NC(=O)[C@H](CC2CCCCC2)NC(=O)[C@H](Cc2cnc[nH]2)NC1=O` (stereo partly drawn) [Compound 1122] ({CH2CO}-[Dap]Y(Carboxymethyl)DWV[Bip]V[Orn][dL]H[Cha]VT[ξC][dE][Aun]-OH; thioether N-14) it was 42.4 nM; in that of `CC(C)C[C@H]1NC(=O)[C@H](CCCN)NC(=O)[C@H](C(C)C)NC(=O)[C@H](Cc2ccc(-c3ccccc3)cc2)NC(=O)[C@H](C(C)C)NC(=O)[C@H](Cc2c[nH]c3ccccc23)NC(=O)[C@H](CC(=O)O)NC(=O)[C@H](Cc2ccc(OCC(=O)O)cc2)NC(=O)[C@H](CN)NC(=O)CSCC(C(=O)N[C@H](CO)C(=O)NCCCCCCCCCCC(=O)O)NC(=O)[C@H]([C@@H](C)O)NC(=O)[C@H](C(C)C)NC(=O)[C@H](CC2CCCCC2)NC(=O)[C@H](Cc2cnc[nH]2)NC1=O` (stereo partly drawn) [Compound 1123] ({CH2CO}-[Dap]Y(Carboxymethyl)DWV[Bip]V[Orn][dL]H[Cha]VT[ξC][dS][Aun]-OH; thioether N-14), 48.4 nM.

Regarding `CC(C)C[C@H]1NC(=O)[C@H](CCCN)NC(=O)[C@H](C(C)C)NC(=O)[C@H](Cc2ccc(-c3ccccc3)cc2)NC(=O)[C@H](C(C)C)NC(=O)[C@H](Cc2c[nH]c3ccccc23)NC(=O)[C@H](CC(=O)O)NC(=O)[C@H](Cc2ccc(OCC(=O)O)cc2)NC(=O)[C@H](CN)NC(=O)CSC[C@@H](C(=O)N[C@H](Cc2cnc[nH]2)C(=O)NCCCCCCCCCCC(=O)O)NC(=O)[C@H]([C@@H](C)O)NC(=O)[C@H](C(C)C)NC(=O)[C@H](CC2CCCCC2)NC(=O)[C@H](Cc2cnc[nH]2)NC1=O` [Compound 1124] ({CH2CO}-[Dap]Y(Carboxymethyl)DWV[Bip]V[Orn][dL]H[Cha]VTC[dH][Aun]-OH; thioether N-14), the IC50 came out at 38.2 nM.

Regarding `CC(C)C[C@H]1NC(=O)[C@H](CCCN)NC(=O)[C@H](C(C)C)NC(=O)[C@H](Cc2ccc(-c3ccccc3)cc2)NC(=O)[C@H](C(C)C)NC(=O)[C@H](Cc2c[nH]c3ccccc23)NC(=O)[C@H](CC(=O)O)NC(=O)[C@H](Cc2ccc(OCC(=O)O)cc2)NC(=O)[C@H](CN)NC(=O)CSCC(C(=O)N[C@H](CC(N)=O)C(=O)NCCCCCCCCCCC(=O)O)NC(=O)[C@H]([C@@H](C)O)NC(=O)[C@H](C(C)C)NC(=O)[C@H](CC2CCCCC2)NC(=O)[C@H](Cc2cnc[nH]2)NC1=O` (stereo partly drawn) [Compound 1125] ({CH2CO}-[Dap]Y(Carboxymethyl)DWV[Bip]V[Orn][dL]H[Cha]VT[ξC][dN][Aun]-OH; thioether N-14), the IC50 stood at 35.6 nM. In the case of `CC(C)C[C@H]1NC(=O)[C@H](CCCN)NC(=O)[C@H](C(C)C)NC(=O)[C@H](Cc2ccc(-c3ccccc3)cc2)NC(=O)[C@H](C(C)C)NC(=O)[C@H](Cc2c[nH]c3ccccc23)NC(=O)[C@H](CC(=O)O)NC(=O)[C@H](Cc2ccc(OCC(=O)O)cc2)NC(=O)[C@H](CN)NC(=O)CSCC(C(=O)N[C@@H](Cc2cnc[nH]2)C(=O)NCCCCCCCCCCC(=O)O)NC(=O)[C@H]([C@@H](C)O)NC(=O)[C@H](C(C)C)NC(=O)[C@H](CC2CCCCC2)NC(=O)[C@H](Cc2cnc[nH]2)NC1=O` (stereo partly drawn) [Compound 1126] ({CH2CO}-[Dap]Y(Carboxymethyl)DWV[Bip]V[Orn][dL]H[Cha]VT[ξC]H[Aun]-OH; thioether N-14) it was 74 nM. In the case of `CC(C)C[C@H]1NC(=O)[C@H](CCCN)NC(=O)[C@H](C(C)C)NC(=O)[C@H](Cc2ccc(-c3ccccc3)cc2)NC(=O)[C@H](C(C)C)NC(=O)[C@H](Cc2c[nH]c3ccccc23)NC(=O)[C@H](CC(=O)O)NC(=O)[C@H](Cc2ccc(OCC(=O)O)cc2)NC(=O)[C@H](CN)NC(=O)CSC[C@@H](C(=O)NCCOCCOCC(=O)N[C@H](C)C(=O)NCCCCCCCCCCC(=O)O)NC(=O)[C@H]([C@@H](C)O)NC(=O)[C@H](C(C)C)NC(=O)[C@H](CC2CCCCC2)NC(=O)[C@H](Cc2cnc[nH]2)NC1=O` [Compound 1127] ({CH2CO}-[Dap]Y(Carboxymethyl)DWV[Bip]V[Orn][dL]H[Cha]VTC[AEEA][dA][Aun]-OH; thioether N-14) it was 25.6 nM.

As usually defined, the IC50 is the concentration at which inhibition is half-maximal.
